Experimental data: patent US8080524B2, “Agent for slowing hair loss and/or stimulating hair growth” (Centre National de la Recherche Scientifique (CNRS), priority 2005, dated 2011)
Residues, ends and D or L forms follow the SMILES beside them.

Key:
human hair explants = assay: Growth (length) of isolated human hairs maintained in ex vivo survival; assay type: cell-based
Experimental: (§1) Study of the stimulating activity of tetrapeptide AcSDKP on the growth of isolated hairs maintained in a state of ex vivo survival. This study was conducted on 66 human hair explants obtained from scalp-plasty.
(§2) Hairs comprised of hair follicles were isolated by micro dissection and individually placed in wells (96-well culture plate) and maintained in survival for 15 days under conventional tissue culturing conditions (37° C., 5% CO2) in Williams medium.
(§3) Tetrapeptide AcSDKP added to the culture medium was tested at three concentrations: 10^−4 M, 10^−7 M and 10^−10 M. Minoxidil (2/1 diamino 6-piperidinopyrimidine 3-oxide) at a concentration of 10^−5 M was used as a positive control.
Culture mediums containing the compounds to be tested were renewed every three days.
Hairs were photographed using a microscope and a CCD camera coupled to acquisition software and archiving.
Each hair was measured on D0, D3, D6, D8, D10, D13 and D15 using a LEICA IM1000 measurement module to give measurements in μm.
Each hair was photographed and its length evaluated using software giving values in μm.

[1] = test system: cells in mitosis (Ki67) in epithelial sheath of human hair explants; assay: Anti-Ki67 immunolabelling of cells in mitosis along the epithelial sheath of hairs; assay type: cell-based; details: for increase in number of cells in mitosis compared to control hair: D8 of treatment
Experimental: as §1, §2, §3
(§4) On D8 and D15 of treatment, six hairs from each batch (untreated control, Minoxidil, +AcSDKP 10^−4 M, +AcSDKP 10^−7 M, +AcSDKP 10^−10 M) were removed and prepared for histological study.
(§5) Three explants from each batch were fixed in ordinary Bouin and the three other hairs were frozen and stored at −80° C.
In addition to measurements of the length of each hair, the general morphology of each hair was analysed and the expression of laminin 5 and collagen IV, two constituents of the basal membrane, was evaluated. Moreover, immunolabeling with anti-Ki67 antibodies (nuclear protein expressed in growing cells) was carried out of cells in mitosis in order to establish the mitotic index of follicle structures.
This study was conducted on cuts of frozen hairs.

[2] = test system: epithelial sheaths of human hair explants; assay: General morphology of hair histological cuts stained with Masson Trichromium (neo-keratinocytes); assay type: cell-based
Experimental: as §1, §2, §3, §4, §5
Analysis of the general morphology of histological cuts stained with Masson Trichromium focusing on the area between the opening of the sebaceous glands and the hair bulb.
Hairs cultured on D0 naturally undergo changes during survival as is observed after an in vivo graft. The restructuring effect of AcSDKP was visualised through the appearance of neo-keratinocytes along the conjunctival sheath which migrate from the bulge and to a lesser extent from the bulb, two regions where stem cells are found. […] This effect leads to clear appearance of neo-keratinocytes along the length of the hair, from the epidermis to the bulb. The structure of the neo-keratinocytes formed in this way is uniform and stratified. It varies as a function of treatment time and AcSDKP concentration. The clearest activity was found on D15 of treatment with AcSDKP at 10^−10 M.

type IV collagen = assay: Immunolabelling of type IV collagen on frozen hair cuts; assay type: cell-based, human
Experimental: as §1, §2, §3
On D8 and D15 of treatment, six hairs from each batch (untreated control, Minoxidil, +AcSDKP 10^−4 M, +AcSDKP 10^−7 M, +AcSDKP 10^−10 M) were removed and prepared for histological study. […]
In addition to measurements of the length of each hair, the general morphology of each hair was analysed and the expression of laminin 5 and collagen IV, two constituents of the basal membrane, was evaluated. […]
Immunolabelling of type IV collagen was carried out on frozen cuts of the control hairs and hairs treated with AcSDKP or Minoxidil in order to quantify this constituent of the basal membrane which separates the dermal compartment from the epithelial compartment.

laminin 5 = assay: Immunolabelling of laminin 5 in hair cuts; assay type: cell-based, human
Experimental: Study of the stimulating activity of tetrapeptide AcSDKP on the growth of isolated hairs maintained in a state of ex vivo survival. This study was conducted on 66 human hair explants obtained from scalp-plasty. Hairs comprised of hair follicles were isolated by micro dissection and individually placed in wells (96-well culture plate) and maintained in survival for 15 days under conventional tissue culturing conditions (37° C., 5% CO2) in Williams medium. Tetrapeptide AcSDKP added to the culture medium was tested at three concentrations: 10^−4 M, 10^−7 M and 10^−10 M. Minoxidil (2/1 diamino 6-piperidinopyrimidine 3-oxide) at a concentration of 10^−5 M was used as a positive control. On D8 and D15 of treatment, six hairs from each batch (untreated control, Minoxidil, +AcSDKP 10^−4 M, +AcSDKP 10^−7 M, +AcSDKP 10^−10 M) were removed and prepared for histological study. Three explants from each batch were fixed in ordinary Bouin and the three other hairs were frozen and stored at −80° C. In addition to measurements of the length of each hair, the general morphology of each hair was analysed and the expression of laminin 5 and collagen IV, two constituents of the basal membrane, was evaluated. Moreover, immunolabeling with anti-Ki67 antibodies (nuclear protein expressed in growing cells) was carried out of cells in mitosis in order to establish the mitotic index of follicle structures. Laminin 5, another constituent of the basal membrane, is present in the bulb around the dermal papilla as well as in the median section of hair. […] Nevertheless, expression of laminin 5 was higher on D15 with AcSDKP at 10^−7 M (FIG. 4B).

keratin 19 (CK19) = assay: Immunolabelling of keratin 19 (CK19), epithelial stem cell marker, on frozen hair cuts; assay type: cell-based, human
Experimental: as §1, §2, §3, §4, §5
Immunolabeling of keratin 19 (CK19) was carried out on frozen cuts of control hairs and hairs treated with AcSDKP or Minoxidil in order to evaluate the proportion of undifferentiated primitive cells (or even stem cells) present in the external epithelial sheaths of the hair follicles. […]

CC(=O)N[C@@H](CO)C(=O)N[C@@H](CC(=O)O)C(=O)N[C@@H](CCCCN)C(=O)N1CCC[C@H]1C(=O)O [AcSDKP, CH3CO-Ser-Asp-Lys-Pro-OH] (Ac-SDKP-OH)
hair growth (length of hair) (human hair explants; AcSDKP 10^−10 M in culture medium, D15 of treatment): significantly stimulates hair growth | hair growth (difference in the hair shafts) (human hair explants; AcSDKP at higher concentrations (10^−4 M, 10^−7 M), D15): no significant difference | Average number of cells in mitosis per mm of hair ([1]; 10^−4 M, D8): 35.4 per mm of hair | Average number of cells in mitosis per mm of hair ([1]; 10^−4 M, D15): 23.4 per mm of hair | Average number of cells in mitosis per mm of hair ([1]; 10^−7 M, D8): 34 per mm of hair | Average number of cells in mitosis per mm of hair ([1]; 10^−7 M, D15): 21.5 per mm of hair | Average number of cells in mitosis per mm of hair ([1]; 10^−10 M, D8): 52.6 per mm of hair | increase in number of cells in mitosis compared to control hair ([1]; 10^−10 M): +300% | Average number of cells in mitosis per mm of hair ([1]; 10^−10 M, D15): 29.3 per mm of hair | number of cells in mitosis in treated hair compared to control hair ([1]; three concentrations tested (10^−4 M, 10^−7 M, 10^−10 M)): significantly increases | thickness of neo-keratinocyte structure ([2]; 10^−4 M, 10^−7 M and especially 10^−10 M, D15): increasingly thicker | adhesion of epithelial sheaths to collagen ([2]; 10^−4 M, D8): more or less detached | neo-keratinocyte sites ([2]; 10^−4 M, D8): absent | adhesion of epithelium to the underlying collagen ([2]; two active concentrations (10^−7 M and 10^−10 M), D8): adheres fully | increase in collagen levels (type IV collagen; 10^−10 M, D8 and D15): all the more marked | collagen IV in the bulb and median section of hair (type IV collagen; three concentrations tested, as of D8 of treatment): very clear increase | expression of laminin 5 (laminin 5; 10^−7 M, D15): higher | laminin 5 effect in the median zone of hair (laminin 5; 10^−10 M, D8 of treatment): considerably more marked | level of laminin 5 in hair structures (laminin 5; following exposure of hair to AcSDKP): significant increase | increase in CK19 levels (keratin 19 (CK19); 10^−10 M, D8 and D15 of treatment): maximal | expression of CK19 compared to control hair and to hair treated with Minoxidil (keratin 19 (CK19); hair kept in survival in the presence of the tetrapeptide): significantly greater

Nc1cc(N2CCCCC2)nc(N)[n+]1[O-] [Minoxidil, 2/1 diamino 6-piperidinopyrimidine 3-oxide, reference compound]
Average number of cells in mitosis per mm of hair ([1]; 10^−5 M, D8): 18.5 per mm of hair | increase in number of cells in mitosis compared to control hair ([1]; 10^−5 M): +38% | Average number of cells in mitosis per mm of hair ([1]; 10^−5 M, D15): 23.3 per mm of hair
